Laboratory results from ChEMBL document CHEMBL4507310, “Data for DCP probe A-1211212” (2021).

Key:
[1] = biological target: Testis-specific serine/threonine-protein kinase 3 (Homo sapiens) (UniProt Q96PN8); conditions: Compound concentration 1000.0 nM
[2] = biological target: Serine/threonine-protein kinase Sgk1 (Homo sapiens) (UniProt O00141); conditions: Compound concentration 1000.0 nM
[3] = biological target: Urotensin-2 receptor (Homo sapiens) (UniProt Q9UKP6); test: UT (h) Eurofins-Cerep binding assay; parameters: ligand concentration 0.1 nM; conditions: filed as agonist, Compound concentration 10.0 uM
Sequence of Urotensin-2 receptor (Homo sapiens) (Q9UKP6 whole entry): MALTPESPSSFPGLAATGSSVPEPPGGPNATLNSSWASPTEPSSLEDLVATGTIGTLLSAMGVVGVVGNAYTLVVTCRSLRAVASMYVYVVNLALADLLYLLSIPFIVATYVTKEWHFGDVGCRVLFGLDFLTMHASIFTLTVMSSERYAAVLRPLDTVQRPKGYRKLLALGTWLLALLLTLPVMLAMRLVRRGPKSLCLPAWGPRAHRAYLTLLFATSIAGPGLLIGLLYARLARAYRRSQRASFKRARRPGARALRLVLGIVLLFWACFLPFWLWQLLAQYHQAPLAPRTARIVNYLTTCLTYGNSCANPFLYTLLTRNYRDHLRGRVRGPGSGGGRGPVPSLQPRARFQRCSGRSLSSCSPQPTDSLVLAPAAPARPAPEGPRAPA

[4] = biological target: TGF-beta receptor type-2 (Homo sapiens) (UniProt P37173); conditions: Compound concentration 1000.0 nM
[5] = test system: Receptor-type tyrosine-protein kinase FLT3 (Homo sapiens), P36888 [D835H]; conditions: Compound concentration 1000.0 nM
[6] = biological target: Serine/threonine-protein kinase SBK1 (Homo sapiens) (UniProt Q52WX2); conditions: Compound concentration 1000.0 nM
[7] = biological target: Rhodopsin kinase GRK7 (Homo sapiens) (UniProt Q8WTQ7); conditions: Compound concentration 1000.0 nM
[8] = biological target: Protein kinase C delta type (Homo sapiens) (UniProt Q05655); conditions: Compound concentration 1000.0 nM
Sequence of Protein kinase C delta type (Homo sapiens) (Q05655 whole entry, looked up): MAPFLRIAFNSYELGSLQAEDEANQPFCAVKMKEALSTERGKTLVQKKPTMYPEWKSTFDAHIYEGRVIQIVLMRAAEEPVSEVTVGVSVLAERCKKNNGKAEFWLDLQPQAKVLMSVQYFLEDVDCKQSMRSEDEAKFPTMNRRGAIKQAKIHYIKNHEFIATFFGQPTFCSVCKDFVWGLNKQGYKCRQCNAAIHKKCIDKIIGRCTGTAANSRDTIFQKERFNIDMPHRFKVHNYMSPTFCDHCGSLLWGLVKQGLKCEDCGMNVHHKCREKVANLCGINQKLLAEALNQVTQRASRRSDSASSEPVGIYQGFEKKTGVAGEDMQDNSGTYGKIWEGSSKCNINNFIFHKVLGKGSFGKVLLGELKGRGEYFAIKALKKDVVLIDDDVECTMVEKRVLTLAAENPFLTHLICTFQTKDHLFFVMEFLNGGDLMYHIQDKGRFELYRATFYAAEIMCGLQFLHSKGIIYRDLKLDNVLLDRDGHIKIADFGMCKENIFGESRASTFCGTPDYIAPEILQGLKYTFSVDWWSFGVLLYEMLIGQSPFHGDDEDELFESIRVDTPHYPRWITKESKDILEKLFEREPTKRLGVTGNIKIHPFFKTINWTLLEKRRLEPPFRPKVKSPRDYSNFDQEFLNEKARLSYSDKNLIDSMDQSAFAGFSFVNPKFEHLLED

[9] = biological target: Ephrin type-B receptor 4 (Homo sapiens) (UniProt P54760); conditions: Compound concentration 1000.0 nM
[10] = biological target: Platelet-derived growth factor receptor alpha (Homo sapiens) (UniProt P16234); conditions: Compound concentration 1000.0 nM
[11] = test system: Epidermal growth factor receptor (Homo sapiens), P00533 [L858R,T790M]; conditions: Compound concentration 1000.0 nM
[12] = biological target: Serine/threonine-protein kinase ULK1 (Homo sapiens) (UniProt O75385); conditions: Compound concentration 1000.0 nM
[13] = biological target: P2X receptor (Rattus norvegicus) (UniProt P51579+P49653+P51578+Q64663+P47824+P51577+P49654); test: P2X Eurofins-Cerep binding assay; assay type: protein assay; parameters: ligand concentration 3 nM; conditions: filed as agonist, Compound concentration 10.0 uM
[14] = test system: Tyrosine-protein kinase ABL1 (Homo sapiens), P00519 [F317I]; conditions: Compound concentration 1000.0 nM
[15] = biological target: Angiopoietin-1 receptor (Homo sapiens) (UniProt Q02763); conditions: Compound concentration 1000.0 nM
[16] = biological target: Serine/threonine-protein kinase WNK3 (Homo sapiens) (UniProt Q9BYP7); conditions: Compound concentration 1000.0 nM
Sequence of Serine/threonine-protein kinase WNK3 (Homo sapiens) (Q9BYP7 whole entry): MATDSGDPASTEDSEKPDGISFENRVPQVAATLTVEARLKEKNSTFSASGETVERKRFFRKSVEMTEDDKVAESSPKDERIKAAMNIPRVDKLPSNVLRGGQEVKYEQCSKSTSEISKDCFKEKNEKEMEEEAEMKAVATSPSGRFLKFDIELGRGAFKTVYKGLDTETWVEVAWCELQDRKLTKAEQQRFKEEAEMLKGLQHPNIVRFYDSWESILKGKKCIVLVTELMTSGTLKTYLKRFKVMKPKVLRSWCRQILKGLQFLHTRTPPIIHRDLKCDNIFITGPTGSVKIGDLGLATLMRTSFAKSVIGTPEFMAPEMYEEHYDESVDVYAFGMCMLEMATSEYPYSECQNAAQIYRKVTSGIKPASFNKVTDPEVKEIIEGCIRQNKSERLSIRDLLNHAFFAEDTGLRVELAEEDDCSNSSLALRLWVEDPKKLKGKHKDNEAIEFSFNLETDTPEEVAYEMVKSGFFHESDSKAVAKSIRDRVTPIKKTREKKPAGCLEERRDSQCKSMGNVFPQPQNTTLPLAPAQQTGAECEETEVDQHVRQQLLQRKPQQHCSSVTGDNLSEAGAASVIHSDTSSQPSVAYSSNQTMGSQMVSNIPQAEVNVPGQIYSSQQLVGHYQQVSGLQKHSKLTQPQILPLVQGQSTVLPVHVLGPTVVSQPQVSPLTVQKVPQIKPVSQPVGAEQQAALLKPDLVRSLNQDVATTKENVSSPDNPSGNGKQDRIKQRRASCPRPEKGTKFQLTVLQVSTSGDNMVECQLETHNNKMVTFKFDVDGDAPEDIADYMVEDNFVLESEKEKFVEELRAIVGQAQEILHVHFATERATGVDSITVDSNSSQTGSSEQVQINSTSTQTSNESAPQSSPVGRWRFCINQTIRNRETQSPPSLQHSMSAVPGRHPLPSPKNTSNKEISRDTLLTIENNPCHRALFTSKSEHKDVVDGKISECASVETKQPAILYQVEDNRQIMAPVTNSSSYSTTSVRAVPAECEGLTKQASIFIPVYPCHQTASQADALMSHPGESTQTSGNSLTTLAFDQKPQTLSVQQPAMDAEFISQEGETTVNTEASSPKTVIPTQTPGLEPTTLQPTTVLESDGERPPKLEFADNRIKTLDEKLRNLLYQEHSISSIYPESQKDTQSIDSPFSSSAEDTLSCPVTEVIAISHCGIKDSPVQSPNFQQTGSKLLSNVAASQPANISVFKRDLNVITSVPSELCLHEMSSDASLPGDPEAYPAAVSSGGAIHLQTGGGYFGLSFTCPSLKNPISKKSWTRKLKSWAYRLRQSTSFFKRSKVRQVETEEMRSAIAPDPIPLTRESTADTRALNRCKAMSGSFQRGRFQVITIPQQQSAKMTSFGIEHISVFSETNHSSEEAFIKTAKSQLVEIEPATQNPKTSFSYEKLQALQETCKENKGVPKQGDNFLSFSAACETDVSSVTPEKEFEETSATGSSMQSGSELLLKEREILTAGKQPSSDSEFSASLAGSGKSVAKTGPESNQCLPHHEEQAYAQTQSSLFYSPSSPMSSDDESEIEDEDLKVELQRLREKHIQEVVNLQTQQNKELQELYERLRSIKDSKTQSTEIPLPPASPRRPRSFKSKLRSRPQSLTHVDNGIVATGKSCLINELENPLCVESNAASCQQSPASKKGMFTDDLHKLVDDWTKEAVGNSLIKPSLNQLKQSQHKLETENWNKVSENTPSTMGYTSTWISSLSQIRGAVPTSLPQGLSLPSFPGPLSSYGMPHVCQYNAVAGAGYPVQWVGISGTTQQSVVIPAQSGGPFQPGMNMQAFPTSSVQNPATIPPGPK

[17] = biological target: 5-hydroxytryptamine receptor 7 (Homo sapiens) (UniProt P34969); test: 5-HT7 (h) Eurofins-Cerep binding assay; parameters: ligand concentration 4 nM; conditions: filed as agonist, Compound concentration 10.0 uM
[18] = biological target: L-type Ca2+ channel (diltiazem site, benzothiazepines) (Rattus norvegicus, UniProt P22002+P27732+Q02485); test: Ca2+ channel (L, diltiazem site) (benzothiazepines) Eurofins-Cerep binding assay; assay type: protein assay; parameters: incubation time 120 min, incubation temperature RT, ligand concentration 15 nM; conditions: rat cerebral cortex, probe [3H]diltiazem (15 nM), compound concentration 10 uM, read-out: % Inhibition of Control Specific Binding (Mean n=2)
[19] = biological target: Citron Rho-interacting kinase (Homo sapiens) (UniProt O14578); conditions: Compound concentration 1000.0 nM
[20] = test system: Receptor-type tyrosine-protein kinase FLT3 (Homo sapiens), P36888 [UNDEFINED MUTATION]; conditions: Compound concentration 1000.0 nM
[21] = biological target: Cyclin-dependent kinase 18 (Homo sapiens) (UniProt Q07002); conditions: Compound concentration 1000.0 nM
[22] = biological target: Ribosomal protein S6 kinase alpha-1 (Homo sapiens) (UniProt Q15418); conditions: Compound concentration 1000.0 nM
[23] = biological target: Death-associated protein kinase 1 (Homo sapiens) (UniProt P53355); conditions: Compound concentration 1000.0 nM
[24] = biological target: Serine/threonine-protein kinase Nek4 (Homo sapiens) (UniProt P51957); conditions: Compound concentration 1000.0 nM
[25] = biological target: D(1A) dopamine receptor (Homo sapiens) (UniProt P21728); conditions: Compound concentration 10.0 uM
[26] = biological target: Eukaryotic translation initiation factor 2-alpha kinase 1 (Homo sapiens) (UniProt Q9BQI3); conditions: Compound concentration 1000.0 nM
Sequence of Eukaryotic translation initiation factor 2-alpha kinase 1 (Homo sapiens) (Q9BQI3 whole entry): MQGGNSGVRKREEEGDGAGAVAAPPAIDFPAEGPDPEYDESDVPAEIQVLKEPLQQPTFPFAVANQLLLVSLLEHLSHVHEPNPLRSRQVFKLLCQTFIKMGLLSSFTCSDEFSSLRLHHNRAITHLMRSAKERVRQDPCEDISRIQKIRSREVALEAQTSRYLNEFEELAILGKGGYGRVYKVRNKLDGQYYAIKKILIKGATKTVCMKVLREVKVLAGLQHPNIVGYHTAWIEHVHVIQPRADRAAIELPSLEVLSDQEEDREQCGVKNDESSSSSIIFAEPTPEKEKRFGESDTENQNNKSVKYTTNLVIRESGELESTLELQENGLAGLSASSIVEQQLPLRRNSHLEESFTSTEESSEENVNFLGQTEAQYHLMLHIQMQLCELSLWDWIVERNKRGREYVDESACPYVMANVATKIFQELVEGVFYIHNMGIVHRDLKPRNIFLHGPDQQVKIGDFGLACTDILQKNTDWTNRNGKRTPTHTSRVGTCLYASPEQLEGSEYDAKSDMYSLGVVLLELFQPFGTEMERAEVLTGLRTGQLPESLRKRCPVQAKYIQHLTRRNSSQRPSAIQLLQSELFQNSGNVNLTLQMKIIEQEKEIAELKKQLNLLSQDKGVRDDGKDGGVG

[27] = biological target: T1, 5-hydroxytryptamine receptor 1A (Homo sapiens) (UniProt P08908); test: 5-HT1A (h) Eurofins-Cerep binding assay; parameters: ligand concentration 0.5 nM; conditions: filed as agonist, Compound concentration 10.0 uM
T1 sequence (whole entry): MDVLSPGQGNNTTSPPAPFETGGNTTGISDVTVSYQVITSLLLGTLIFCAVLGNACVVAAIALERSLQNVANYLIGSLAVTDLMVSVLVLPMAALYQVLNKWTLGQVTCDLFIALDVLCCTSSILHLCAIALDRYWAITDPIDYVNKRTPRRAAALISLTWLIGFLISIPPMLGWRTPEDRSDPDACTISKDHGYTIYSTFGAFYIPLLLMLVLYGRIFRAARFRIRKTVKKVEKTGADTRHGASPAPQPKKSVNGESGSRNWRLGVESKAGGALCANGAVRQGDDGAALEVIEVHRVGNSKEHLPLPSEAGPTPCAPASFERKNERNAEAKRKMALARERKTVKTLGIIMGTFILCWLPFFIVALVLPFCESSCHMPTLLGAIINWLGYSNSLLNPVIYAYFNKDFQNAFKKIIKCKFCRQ

[28] = biological target: Sodium-dependent serotonin transporter (Homo sapiens) (UniProt P31645); test: 5-HT transporter (h) Eurofins-Cerep binding assay; parameters: ligand concentration 2 nM; conditions: filed as antagonist, Compound concentration 10.0 uM
[29] = biological target: Activin receptor type-1 (Homo sapiens) (UniProt Q04771); conditions: Compound concentration 1000.0 nM
[30] = biological target: Calcium-dependent protein kinase 1 (Plasmodium falciparum) (UniProt P62344); conditions: Compound concentration 1000.0 nM
Sequence of Calcium-dependent protein kinase 1 (Plasmodium falciparum) (P62344 2-524 limits assumed): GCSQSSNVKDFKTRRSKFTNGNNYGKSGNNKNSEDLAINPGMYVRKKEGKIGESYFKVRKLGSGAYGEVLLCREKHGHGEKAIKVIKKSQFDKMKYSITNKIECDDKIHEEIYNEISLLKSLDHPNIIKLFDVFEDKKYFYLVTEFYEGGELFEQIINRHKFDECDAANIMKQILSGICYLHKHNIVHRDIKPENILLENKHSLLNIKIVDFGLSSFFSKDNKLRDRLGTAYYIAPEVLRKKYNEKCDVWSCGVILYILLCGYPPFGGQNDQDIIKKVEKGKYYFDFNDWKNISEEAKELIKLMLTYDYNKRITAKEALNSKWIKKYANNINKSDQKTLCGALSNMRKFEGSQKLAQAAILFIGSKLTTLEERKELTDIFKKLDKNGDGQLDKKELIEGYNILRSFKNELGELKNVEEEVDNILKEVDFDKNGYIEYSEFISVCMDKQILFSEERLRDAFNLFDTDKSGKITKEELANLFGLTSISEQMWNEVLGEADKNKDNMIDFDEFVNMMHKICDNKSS

[31] = biological target: Phosphatidylinositol 3-kinase C2 domain-containing subunit gamma (Homo sapiens) (UniProt O75747); conditions: Compound concentration 1000.0 nM
[32] = biological target: Dual specificity tyrosine-phosphorylation-regulated kinase 1A (Homo sapiens) (UniProt Q13627); conditions: Compound concentration 1000.0 nM
[33] = biological target: Tyrosine-protein kinase ABL1 (Homo sapiens) (UniProt P00519); conditions: Compound concentration 1000.0 nM
[34] = biological target: Mitogen-activated protein kinase kinase kinase 3 (Homo sapiens) (UniProt Q99759); conditions: Compound concentration 1000.0 nM
[35] = biological target: Delta-type opioid receptor (Homo sapiens) (UniProt P41143); conditions: Compound concentration 10.0 uM
[36] = biological target: Serine/threonine-protein kinase STK11 (Homo sapiens) (UniProt Q15831); conditions: Compound concentration 1000.0 nM
Sequence of Serine/threonine-protein kinase STK11 (Homo sapiens) (Q15831 whole entry): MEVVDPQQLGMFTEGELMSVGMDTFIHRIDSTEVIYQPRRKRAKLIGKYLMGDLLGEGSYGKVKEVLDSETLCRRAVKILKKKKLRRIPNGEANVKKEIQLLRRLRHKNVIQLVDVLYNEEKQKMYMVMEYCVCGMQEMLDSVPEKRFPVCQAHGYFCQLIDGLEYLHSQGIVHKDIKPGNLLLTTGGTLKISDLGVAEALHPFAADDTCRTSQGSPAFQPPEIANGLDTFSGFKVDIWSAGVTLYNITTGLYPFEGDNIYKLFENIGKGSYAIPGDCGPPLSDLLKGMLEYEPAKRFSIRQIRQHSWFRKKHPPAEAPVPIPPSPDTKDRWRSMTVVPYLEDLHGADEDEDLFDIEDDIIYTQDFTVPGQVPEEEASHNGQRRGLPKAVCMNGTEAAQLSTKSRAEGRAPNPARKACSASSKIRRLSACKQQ

[37] = test system: Receptor-type tyrosine-protein kinase FLT3 (Homo sapiens), P36888 [K663Q]; conditions: Compound concentration 1000.0 nM

Sequence of Serine/threonine-protein kinase Sgk1 (Homo sapiens) (O00141 whole entry): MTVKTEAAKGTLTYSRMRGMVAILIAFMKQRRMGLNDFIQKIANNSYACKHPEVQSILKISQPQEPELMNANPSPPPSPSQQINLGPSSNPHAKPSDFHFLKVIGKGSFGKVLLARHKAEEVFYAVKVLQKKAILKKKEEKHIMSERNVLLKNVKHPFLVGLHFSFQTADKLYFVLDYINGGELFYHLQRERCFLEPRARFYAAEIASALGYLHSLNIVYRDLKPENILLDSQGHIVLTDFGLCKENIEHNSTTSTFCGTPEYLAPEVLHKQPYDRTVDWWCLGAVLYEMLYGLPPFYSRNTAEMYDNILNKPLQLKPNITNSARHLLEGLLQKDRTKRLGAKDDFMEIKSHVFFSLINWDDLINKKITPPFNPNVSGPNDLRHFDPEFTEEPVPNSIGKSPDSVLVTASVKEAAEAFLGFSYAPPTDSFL

| SMILES | residual activity [1] [%] | residual activity [2] [%] | % Inhibition of Control Specific Binding (Mean n=2) [3] [%] | residual activity [4] [%] | residual activity [5] [%] | residual activity [6] [%] | residual activity [7] [%] | residual activity [8] [%] | residual activity [9] [%] | residual activity [10] [%] | residual activity [11] [%] | residual activity [12] [%] | % Inhibition of Control Specific Binding (Mean n=2) [13] [%] | residual activity [14] [%] | residual activity [15] [%] | residual activity [16] [%] | % Inhibition of Control Specific Binding (Mean n=2) [17] [%] | inhibition at 120 min, 10 µM [18] [%] | residual activity [19] [%] | residual activity [20] [%] | also measured |
| --- | --- | --- | --- | --- | --- | --- | --- | --- | --- | --- | --- | --- | --- | --- | --- | --- | --- | --- | --- | --- | --- |
| O=C(NS(=O)(=O)c1ccc(NCC2CCOCC2)c([N+](=O)[O-])c1)c1ccc(N2CCN(Cc3ccc(C(F)(F)F)cc3-c3ccc(Cl)cc3)CC2)cc1Oc1cnc2[nH]ccc2c1 [A-1210227] | 79 | 88 | 2.7 | 76 | 100 | 100 | 78 | 100 | 100 | 100 | 75 | 96 | 10 | 87 | 80 | 100 | 10.2 | -124 | 91 | 66 | residual activity [21]: 100%; residual activity [22]: 100%; residual activity [23]: 100%; residual activity [24]: 100%; inhibition [25]: 34.2%; residual activity [26]: 84%; % Inhibition of Control Specific Binding (Mean n=2) [27]: -3.4%; % Inhibition of Control Specific Binding (Mean n=2) [28]: 0.4%; residual activity [29]: 89%; residual activity [30]: 82%; residual activity [31]: 80%; residual activity [32]: 63%; residual activity [33]: 100%; residual activity [34]: 82%; inhibition [35]: -3.92%; residual activity [36]: 100%; residual activity [37]: 100% |
| CO[C@H]1CC[C@H](CNc2ccc(S(=O)(=O)NC(=O)c3ccc(N4CCN(CC5=C(c6ccc(Cl)cc6)CC(C)(C)CC5)CC4)cc3Oc3cnc4[nH]ccc4c3)cc2[N+](=O)[O-])CC1 [A-1211212] | 70 | 100 | 8.6 | 74 | 78 | 100 | 100 | 70 | 100 | 100 | 98 | 82 | -2.7 | 100 | 69 | 100 | 11.4 | -6.2 | 74 | 88 | residual activity [21]: 100%; residual activity [22]: 73%; residual activity [23]: 73%; residual activity [24]: 100%; inhibition [25]: 28.2%; residual activity [26]: 100%; % Inhibition of Control Specific Binding (Mean n=2) [27]: -2.7%; % Inhibition of Control Specific Binding (Mean n=2) [28]: -2.2%; residual activity [29]: 84%; residual activity [30]: 80%; residual activity [31]: 72%; residual activity [32]: 65%; residual activity [33]: 71%; residual activity [34]: 83%; inhibition [35]: 5.68%; residual activity [36]: 59%; residual activity [37]: 91% |
